Experimental data published in patent US20240209456A1, “METHODS AND COMPOSITIONS RELATED TO CELL-CYCLE RNA's” (BETH ISRAEL DEACONESS MEDICAL CENTER, priority 2021, published 2024).
*1 amine or outer side, *2 acyl side, *3 side chain or, on linkers, in order; H or OH if unused. Where a SMILES comes first, the peptide text is derived from it. Bridges are numbered along the chain shown (N, C = ends). Roman numbers before positions name the chains, in order. [ ]: non-standard residue; d: D form. Actinocin(9to1) = Cc1c2oc3c(C)ccc(C(=O)[*:1])c3nc-2c(C(=O)[*:2])c(N)c1=O; NMeV = CN[C@H](C(=O)O)C(C)C; Sar = CNCC(=O)O

How the values were obtained:
Type in all cases: cell-based, human
acH2A.Z = test: Western blot of total proteins, acH2A.Z normalized by H2A.Z; settings: HL-60, 2 hours; 200 μM MG149, 500 μM TH1834
Protocol: (§1) Whole-cell lysates from approximately 0.2×10^6 cells per each sample were separated on 12% SDS-PAGE gels and transferred to a nitrocellulose membrane. Immunoblots were stained overnight at 4° C. with the following primary antibodies: H2A.Z (1:2,000; Abcam ab4174), H2A.Z acetyl (K4+K7+K11) (1:2,000; Abcam ab18262) or TIP60 (1:1000; generous gift from Bruno Amati). All secondary horseradish peroxidase (HRP)-conjugated antibodies were diluted 1:5,000 and incubated for 1 hr at room temperature with TBST/5% BSA. Immuno-reactive proteins were detected using the Pierce® ECL system (Thermo Scientific #32106).

H2A.Z [1] = test: ChIP-Seq with H2A.Z antibody, occupancy at TSSs; settings: for number of TSS with comparable (2-fold) decrease in total H2A.Z occupancy: HL-60, 2 hr treatment, vs cells without treatment, 38,512 TSS compared; for occupancy levels of unmodified H2A.Z at the TSS, genome-wide / H2A.Z peak intensity ratio, PU.1 locus (DMSO = 1) / H2A.Z peak intensity ratio, c-MYC locus (DMSO = 1): HL-60, 2 hr; for occupancy levels of unmodified H2A.Z at the TSS, genome-wide: vs mock-treated (DMSO), FIG. 4C; for H2A.Z peak intensity ratio, PU.1 locus (DMSO = 1) / H2A.Z peak intensity ratio, c-MYC locus (DMSO = 1): [DMSO/DRB/ActD]
From the text: Two transcription inhibitors, Actinomycin D (ActD; RNA Polymerase I, II and III inhibitor) and 5,6-Dichlorobenzimidazole 1-β-D-ribofuranoside (DRB; RNAPII Inhibitor), were used at concentrations sufficient to block both RNA Polymerases II and III. Cells were synchronized with a double thymidine block and released into S Phase with ActD/DRB added. The rationale behind the use of ActD and DRB is: (i) to globally assess the effect of SPEARs suppression over a short time frame; (ii) to test effects resulting from the two different pathways triggered by ActD and DRB; and (iii) to take advantage of the reversibility of DRB treatment. […] Two hours after drug treatment, cells were crosslinked and subjected to ChIP-Seq analyses. […] Relative changes were then investigated in the footprints of unmodified H2A.Z and acH2A.Z in the vicinity of TSSs that result from DRB- and ActD-induced inhibition of SPEARs. The enrichments of ChIP-Seq signals for H2A.Z and acH2A.Z around 38,512 TSS (defined in the hg38 UCSC canonical gene table) following drug treatment were then compared with their occupancy in mock-treated (DMSO) cells. […] ActD-treated cells followed this pattern with a greater than 2-fold decrease in the levels of acH2A.Z at 6,283 TSS compared to untreated samples. […] For the c-MYC and PU1 loci, respectively, the ratios of control (DMSO) to drug treated H2A.Z peak intensities were: [DMSO/DRB/ActD]^c-MYC=1/0.76/0.67 and [DMSO/DRB/ActD]^PU.1=1/0.87/0.82; and the ratios of control (DMSO) to drug treated acH2A.Z peak intensities were: [DMSO/DRB/ActD]^c-MYC=1/0.62/0.36 and [DMSO/DRB/ActD]^PU.1=1.0/0.25/0.13. […] For MYB the ratios of control (DMSO) to drug treated acH2A.Z peak intensities are: [DMSO/DRB/ActD]^MYB=0.62/0.89/1.0, which corresponds to the increases in its SPEARs levels (FIG. 10C).
Double Thymidine block (early S-phase block) was carried out as described. Briefly, HL-60 cells were grown overnight to 70-80% confluence, washed twice with 1×PBS and cultured in DMEM (10% FCS)+2.5 mM Thymidine for 18 h (first block). Thymidine was washed out with 1×PBS and cells were grown in DMEM (10% FCS). After 8 hrs cells were cultured in the presence of thymidine for 18 h (second block) and then released as described. Synchrony was monitored by flow cytometry analysis of propidium iodide-stained cells using a LSRII flow cytometer (BD Biosciences) at the Harvard Stem Cell Institute/Beth Israel Deaconess Center flow cytometry facility.
DRB and Actinomycin D treatments were carried out as described. Briefly, after release from double thymidine block, HL-60 cells were treated with 100 μM of 5,6-Dichlorobenzimidazole 1-β-D-ribofuranoside (DRB) (Sigma Aldrich) or 0.8 μM of Actinomycin D (Sigma Aldrich) as indicated at each time point.
ChIP was performed as follows. Cells were crosslinked with 1% formaldehyde for 10 min at r.t. Pellets of 1×10^6 cells were used for immunoprecipitation and lysed for 10 minutes on ice and chromatin fragmented using a Branson 250 digital sonicator. Each ChIP was performed with 4 ug of antibody, incubated overnight at 4° C. A 50/50 slurry of protein A and protein G Dynabeads was used to capture enriched chromatin, which was then washed before reverse-crosslinking and proteinase K digestion at 65° C. AMPure XP beads were used to clean up and isolate ChIP DNA for subsequent library construction. The following antibodies were used for ChIP: H2A.Z (Abcam ab4174, lot GR3176820-1), acH2A.Z (Abcam ab18262, lot GR306397-1), TIP60 antibody; and IgG (Abcam ab171870). Fold enrichment was calculated using the formula 2^(−ΔΔCt(ChIP/non-immune serum)). Primer sets used for ChIP are listed in Table 2. nRIP was performed and crosslinked nuclei were collected as follows: 1. 60×10^6 HL-60 cells were crosslinked with 1% formaldehyde (formaldehyde solution, freshly made: 50 mM HEPES-KOH; 100 mM NaCl; 1 mM EDTA; 0.5 mM EGTA; 11% formaldehyde) for 10 min at room temperature. […]

H2A.Z [2] = test: Western blot of total proteins, H2A.Z; settings: HL-60, 2 hours treatment, FIG. 10A
Protocol: as §1

MYB SPEARs = test: qRT-PCR of MYB SPEARs; settings: HL-60, DRB and ActD, FIG. 10C
Protocol: Total RNA isolation was carried out and all RNA samples used in this study were treated with DNase I (10 U of DNase I per 3 μg of total RNA; 37° C. for one hour; in the presence of RNase inhibitor). After DNase I treatment, RNA samples were extracted with acidic phenol (pH 4.3) to eliminate any remaining traces of DNA. cDNA syntheses were performed with Random Primers (Invitrogen) or gene-specific primers with Transcriptor Reverse Transcriptase (Roche Applied Science) according to the manufacturer's recommendation. cDNA was purified with a High Pure PCR Product Purification Kit (Roche Applied Science).
Sybr green reaction was performed using iQ Sybr Green supermix (Biorad, Hercules, CA) using the following parameters: 95° C. (10 min), 40 cycles of 95° C. (15 s) and 60° C. (1 min) 72° C. (1 min). TaqMan analysis was performed using Hotstart Probe One-step qRT-PCR master mix (USB) at the following conditions: 50° C. (10 min.), 95° C. (2 min.), and then 40 cycles of 95° C. (15 sec.) and 60° C. (60 sec.).

O=C(O)Cn1nnc(-c2ccc(CN(CCCCOc3ccc(CN4CCCC4)cc3)CCc3ccccc3)cc2)n1 [TH1834]
level of acH2A.Z normalized by H2A.Z (acH2A.Z): Reduction

CCCCCCCc1ccc(CCc2cccc(O)c2C(=O)O)cc1 [MG149]
level of acH2A.Z normalized by H2A.Z (acH2A.Z): Reduction

OC[C@H]1O[C@@H](n2cnc3cc(Cl)c(Cl)cc32)[C@H](O)[C@@H]1O [DRB, 5,6-Dichlorobenzimidazole 1-β-D-ribofuranoside]
number of TSS with comparable (2-fold) decrease in total H2A.Z occupancy (H2A.Z [1]): 398 TSS | occupancy levels of unmodified H2A.Z at the TSS, genome-wide (H2A.Z [1]): only modest changes | H2A.Z peak intensity ratio, PU.1 locus (DMSO = 1) (H2A.Z [1]): 0.87 | H2A.Z peak intensity ratio, c-MYC locus (DMSO = 1) (H2A.Z [1]): 0.76 | overall global content of H2A.Z (H2A.Z [2]): not affected | MYB SPEARs level upon transcription inhibitors (MYB SPEARs): positively affected

Cc1c2oc3c(C)ccc(C(=O)N[C@@H]4C(=O)N[C@H](C(C)C)C(=O)N5CCC[C@H]5C(=O)N(C)CC(=O)N(C)[C@@H](C(C)C)C(=O)O[C@@H]4C)c3nc-2c(C(=O)N[C@@H]2C(=O)N[C@H](C(C)C)C(=O)N3CCC[C@H]3C(=O)N(C)CC(=O)N(C)[C@@H](C(C)C)C(=O)O[C@@H]2C)c(N)c1=O [ActD, Actinomycin D] (I: T[dV]P[Sar][NMeV] / II: T[dV]P[Sar][NMeV]; ester I:1-I:C, II:1-II:C; linker I:N-II:N via Actinocin(9to1))
number of TSS with comparable (2-fold) decrease in total H2A.Z occupancy (H2A.Z [1]): 650 TSS | occupancy levels of unmodified H2A.Z at the TSS, genome-wide (H2A.Z [1]): only modest changes | H2A.Z peak intensity ratio, PU.1 locus (DMSO = 1) (H2A.Z [1]): 0.82 | H2A.Z peak intensity ratio, c-MYC locus (DMSO = 1) (H2A.Z [1]): 0.67 | overall global content of H2A.Z (H2A.Z [2]): not affected | MYB SPEARs level upon transcription inhibitors (MYB SPEARs): positively affected
